One assay addresses Ret wt (Homo sapiens (Human), UniProt P07949). The experiment in a line: HTRF kinase inhibition assay, Ret wt. It counts as biochemical. Particulars: HTRF method. The source says:
(§1) • 1. […] 1) • 18) Echo (Labcyte, 550) • 3.
(§2) [formula] • Ratiopositive control: average of CEP-32496 readings in all positive control wells • Rationegative control: average of DMSO readings in all negative control wells • Wherein, the chemical name of CEP-32496 is: N-[3-[(6,7-dimethoxy-4-quinazolinyl)oxy]phenyl]-N′-[5-(2,2,2-trifluoro-1,1-dimethylethyl)-3-isoxazolyl]urea. • 4.3 Calculation of the IC50 and Drawing of the inhibition curve of the compound: • The IC50 (half inhibitory concentration) of the compound was obtained using the following non-linear fitting formula: Data analysis was performed using Graphpad 6.0 software. Y=Bottom+(Top−Bottom)/(1+10^((Log IC50−X)*Hill Slope)) • X: compound concentration log value Y: inhibition, % • 5.

In another assay the target is Ret V804M (Homo sapiens (Human), UniProt P07949, V804M). The experiment in a line: HTRF kinase inhibition assay, Ret V804M. The class given is biochemical. Particulars: HTRF method.
From the text: as §1, §2

Ret V804M, sequence (P07949 29-1114 V804M): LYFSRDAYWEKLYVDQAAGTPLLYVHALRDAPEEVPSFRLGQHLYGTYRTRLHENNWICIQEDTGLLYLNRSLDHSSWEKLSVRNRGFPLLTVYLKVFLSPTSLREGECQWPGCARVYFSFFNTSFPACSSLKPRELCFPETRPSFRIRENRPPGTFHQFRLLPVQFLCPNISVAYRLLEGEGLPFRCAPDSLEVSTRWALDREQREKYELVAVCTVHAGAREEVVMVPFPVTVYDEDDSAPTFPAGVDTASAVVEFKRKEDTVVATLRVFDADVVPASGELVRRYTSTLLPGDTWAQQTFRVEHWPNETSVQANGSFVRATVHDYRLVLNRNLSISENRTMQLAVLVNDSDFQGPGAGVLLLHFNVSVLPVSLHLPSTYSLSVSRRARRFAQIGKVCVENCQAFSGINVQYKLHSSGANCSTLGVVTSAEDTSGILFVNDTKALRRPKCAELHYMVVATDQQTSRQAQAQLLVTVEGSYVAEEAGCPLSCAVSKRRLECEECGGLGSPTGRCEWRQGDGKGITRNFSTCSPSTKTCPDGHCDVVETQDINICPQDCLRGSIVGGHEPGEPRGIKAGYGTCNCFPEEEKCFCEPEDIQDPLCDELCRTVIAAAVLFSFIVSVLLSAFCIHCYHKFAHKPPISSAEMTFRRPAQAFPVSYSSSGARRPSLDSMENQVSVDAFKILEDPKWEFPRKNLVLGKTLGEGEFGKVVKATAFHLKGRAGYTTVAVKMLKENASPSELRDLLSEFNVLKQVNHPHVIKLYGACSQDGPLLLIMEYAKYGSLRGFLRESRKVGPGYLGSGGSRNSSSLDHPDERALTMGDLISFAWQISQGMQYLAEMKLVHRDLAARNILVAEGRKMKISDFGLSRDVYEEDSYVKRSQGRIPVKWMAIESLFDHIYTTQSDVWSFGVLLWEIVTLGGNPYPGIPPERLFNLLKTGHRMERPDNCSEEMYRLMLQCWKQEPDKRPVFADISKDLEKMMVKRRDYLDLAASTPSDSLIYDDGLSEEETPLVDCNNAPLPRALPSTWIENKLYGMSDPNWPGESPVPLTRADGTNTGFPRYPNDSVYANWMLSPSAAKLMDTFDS
Ret wt, sequence (P07949 29-1114): as the sequence (P07949 29-1114 V804M) above, with M776V counted along it

As for `Cn1cc(-c2cc(-c3ccc(N4CCN(CC#Cc5ccc(C(F)(F)F)cc5)CC4)nc3)c3c(C#N)cnn3c2)cn1` [Example 246, 6-(1-methyl-1H-pyrazol-4-yl)-4-(6-(4-(3-(4-(trifluoromethyl)phenyl)prop-2-yn-1-yl)piperazine-1-yl)pyridin-3-yl)pyrazolo[1,5-a]pyridine-3-carbonitrile], the IC50 against Ret wt turned out to be 7.06 nM; on Ret V804M it was 198 nM.
For `Cn1cc(-c2cc(-c3ccc(N4CCN(CC#Cc5ccccn5)CC4)nc3)c3c(C#N)cnn3c2)cn1` [Example 247, 6-(1-methylpyrazol-4-yl)-4-[6-[4-[3-(2-pyridyl)prop-2-ynyl]piperazin-1-yl]-3-pyridyl]pyrazolo[1,5-a]pyridine-3-carbonitrile], in that order: 0.15 nM and 1.94 nM.
For `Cn1cc(-c2cc(-c3ccc(N4CCN(CC#Cc5cccnc5)CC4)nc3)c3c(C#N)cnn3c2)cn1` [Example 248, 6-(1-methylpyrazol-4-yl)-4-[6-[4-[3-(3-pyridyl)prop-2-ynyl]piperazin-1-yl]-3-pyridyl]pyrazolo[1,5-a]pyridine-3-carbonitrile], in that order: 0.58 nM and 5.76 nM.
Take `Cn1cc(-c2cc(-c3ccc(N4CC5CC(C4)N5CC#Cc4cccnc4)nc3)c3c(C#N)cnn3c2)cn1` [Example 249, 6-(1-methylpyrazol-4-yl)-4-[6-[6-[3-(3-pyridyl)prop-2-ynyl]-3,6-diazabicyclo[3.1.1]heptan-3-yl]-3-pyridyl]pyrazolo[1,5-a]pyridine-3-carbonitrile]: the IC50 on Ret wt is 0.39 nM; against Ret V804M, 1.77 nM.
For `Cn1cc(-c2cc(-c3ccc(N4CC5CC(C4)N5CC#Cc4ccccc4)nc3)c3c(C#N)cnn3c2)cn1` [Example 250, 6-(1-methyl-1H-pyrazol-4-yl)-4-(6-(6-(3-phenylprop-2-yn-1-yl)-3,6-diazabicyclo[3.1.1]heptanpyridin-3-yl)pyridin-3-yl)pyrazolo[1,5-a]pyridine-3-carbonitrile], in that order: 0.14 nM and 0.88 nM.
The matching figures for `COc1ccc(C#CCN2CCN(c3ccc(-c4cc(-c5cnn(C)c5)cn5ncc(C#N)c45)cn3)CC2)cc1` [Example 251, 4-(6-(4-(3-(4-methoxyphenyl)prop-2-yn-1-yl)piperazin-1-yl)pyridin-3-yl)-6-(1-methyl-1H-pyrazolpyridin-4-yl)pyrazolo[1,5-a]pyridine-3-carbonitrile]: 2.41 nM and 27.9 nM.
For `COc1ccnc(C#CCN2CCN(c3ccc(-c4cc(-c5cnn(C)c5)cn5ncc(C#N)c45)cn3)CC2)c1` [Example 252, 4-(6-(4-(3-(4-methoxypyridin-2-yl)propan-2-ynyl-1-yl)piperazin-1-yl)pyridin-3-yl)-6-(1-methyl-1H-pyrazolin-4-yl)pyrazole[1,5-a]pyridine-3-carbonitrile], in that order: 0.25 nM and 3.21 nM.
For the compound `Cn1cc(-c2cc(-c3ccc(N4CCN(CC#Cc5ccccc5)CC4)nc3)c3c(C#N)cnn3c2)cn1` [Example 253, 6-(1-methyl-1H-pyrazol-4-yl)-4-(6-(4-(3-phenylprop-2-yn-1-yl)piperazin-1-yl)pyridine-3-yl)pyrazolo[1,5-a]pyridine-3-carbonitrile], the figures for the IC50 on Ret wt and against Ret V804M were 0.91 nM and 5.47 nM, respectively.
The matching figures for `COc1cncc(C#CCN2CCN(c3ccc(-c4cc(-c5cnn(C)c5)cn5ncc(C#N)c45)cn3)CC2)c1` [Example 254, 4-(6-(4-(3-(5-methoxypyridin-3-yl)prop-2-yn-1-yl)piperazin-1-yl)pyridin-3-yl)-6-(1-methyl-1H-pyrazol-4-yl)pyrazolo[1,5-a]pyridine-3-carbonitrile]: 3.57 nM and 18.3 nM.
The matching figures for `Cn1cc(-c2cc(-c3ccc(N4CCN(CC#Cc5cccnc5F)CC4)nc3)c3c(C#N)cnn3c2)cn1` [Example 255, 4-[6-[4-[3-(2-fluoro-3-pyridyl)prop-2-ynyl]piperazin-1-yl]-3-pyridyl]-6-(1-methylpyrazol-4-yl)pyrazolo[1,5-a]pyridine-3-carbonitrile]: 0.57 nM and 4.11 nM.
For `Cn1cc(-c2cc(-c3ccc(N4CC5CC(C4)N5CC#Cc4cccnc4F)nc3)c3c(C#N)cnn3c2)cn1` [Example 256, 4-[6-[6-[3-(2-fluoro-3-pyridyl)prop-2-ynyl]-3,6-diazabicyclo[3.1.1]heptan-3-yl]3-pyridyl]-6-(1-methylpyrazol-4-yl)pyrazolo[1,5-a]pyridine-3-carbonitrile], in that order: 0.14 nM and 0.44 nM.
With `Cn1cc(-c2cc(-c3ccc(N4CCN(CC#Cc5ncccc5F)CC4)nc3)c3c(C#N)cnn3c2)cn1` [Example 257, 4-(6-(6-(3-(3-fluoropyridin-2-yl)prop-2-yn-1-yl)piperazin-3-yl)pyridin-3-yl)-6-(1-methyl-1H-pyrazol-4-yl)pyrazoline[1,5-a]pyridine-3-carbonitrile], the figures for the IC50 at Ret wt and on Ret V804M were 0.17 nM and 0.74 nM, respectively.
As for `Cn1cc(-c2cc(-c3ccc(N4CC5CC(C4)N5CC#Cc4ncccc4F)nc3)c3c(C#N)cnn3c2)cn1` [Example 258, 4-(6-(6-(3-(3-fluoropyridin-2-yl)prop-2-yn-1-yl)-3,6-diazabicyclo[3.1.1]heptane-3-yl)pyridin-3-yl)-6-(1-methyl-1H-pyrazol-4-yl)pyrazoline[1,5-a]pyridin-3-carbonitrile], the IC50 is 0.15 nM on Ret wt and 0.21 nM at Ret V804M.
The matching figures for `Cn1cc(-c2cc(-c3ccc(N4CC5CC(C4)N5CC#Cc4cncc(F)c4)nc3)c3c(C#N)cnn3c2)cn1` [Example 259, 4-(6-(6-(3-(5-fluoropyridin-3-yl)prop-2-yn-1-yl)-3,6-diazabicyclo[3.1.1]heptane-3-yl)pyridin-3-yl)-6-(1-methyl-1H-pyrazol-4-yl)pyrazolo[1,5-a]pyridin-3-carbonitrile]: 0.16 nM and 0.91 nM.
The matching figures for `Cn1cc(-c2cc(-c3ccc(N4CCN(CC#Cc5ccc(F)nc5)CC4)nc3)c3c(C#N)cnn3c2)cn1` [Example 261, 4-[6-[4-[3-(6-fluoro-3-pyridyl)prop-2-ynyl]piperazin-1-yl]-3-pyridyl]-6-(1-methylpyrazol-4-yl)pyrazolo[1,5-a]pyridine-3-carbonitrile]: 3.1 nM and 5.1 nM.
For `Cn1cc(-c2cc(-c3ccc(N4CC5CC(C4)N5CC#Cc4ccc(F)nc4)nc3)c3c(C#N)cnn3c2)cn1` [Example 262, 4-[6-[6-[3-(6-fluoro-3-pyridyl)prop-2-ynyl]-3,6-diazabicyclo[3.1.1]heptan-3-yl]3-pyridyl]-6-(1-methylpyrazol-4-yl)pyrazolo[1,5-a]pyridine-3-carbonitrile], in that order: 0.2 nM and 1.92 nM.
On to `Cn1cc(-c2cc(-c3ccc(N4CCN(CC#Cc5ccncc5)CC4)nc3)c3c(C#N)cnn3c2)cn1` [Example 263, 6-(1-methyl-1H-pyrazol-4-yl)-4-(6-(4-(3-(pyridin-4-yl)prop-2-yn-1-yl)piperazin-1-yl)pyridine-3-yl)pyrazolo[1,5-a]pyridine-3-carbonitrile], for which the results for the IC50 on Ret wt and on Ret V804M were 2.5 nM and 31.4 nM, respectively.
Take `Cn1cc(-c2cc(-c3ccc(N4CCN(CC#Cc5cncc(C(F)(F)F)c5)CC4)nc3)c3c(C#N)cnn3c2)cn1` [Example 265]: the IC50 against Ret wt came out at 3.65 nM; against Ret V804M, 69.6 nM.
The matching figures for `COc1cncc(C#CC(=O)N2C3CC2CN(c2ccc(-c4cc(-c5cnn(C)c5)cn5ncc(C#N)c45)cn2)C3)c1` [Example 270, 4-(6-(6-(3-(5-methoxypyridin-3-yl)propioloyl)-3,6-diazabicyclo[3.1.1]heptan-3-yl)pyridin-3-yl)-6-(1-methyl-1H-pyrazol-4-yl)pyrazolo[1,5-a]pyridine-3-carbonitrile]: 1.1 nM and 4.9 nM.
The matching figures for `Cn1cc(-c2cc(-c3ccc(N4CC5CC(C4)N5C(=O)C#Cc4ccccc4)nc3)c3c(C#N)cnn3c2)cn1` [Example 271, 6-(1-methyl-1H-pyrazol-4-yl)-4-(6-(6-(3-phenylpropioloyl)-3,6-diazabicyclo[3.1.1]heptane-3-yl)pyridin-3-yl)pyrazolo[1,5-a]pyridine-3-carbonitrile]: 5.82 nM and 74.1 nM.
Regarding `COc1cncc(C#CC(=O)N2CCN(c3ccc(-c4cc(-c5cnn(C)c5)cn5ncc(C#N)c45)cn3)CC2)c1` [Example 272, 4-(6-(4-(3-(5-methoxypyridin-3-yl)propioloyl)piperazin-1-yl)pyridin-3-yl)-6-(1-methyl-1H-pyrazol-4-yl)pyrazolo[1,5-a]pyridine-3-carbonitrile], the IC50 against Ret wt came out at 0.72 nM; at Ret V804M, 5.26 nM.
The matching figures for `Cn1cc(-c2cc(-c3ccc(N4CC5CC(C4)N5C(=O)C#Cc4cccnc4)nc3)c3c(C#N)cnn3c2)cn1` [Example 273, 6-(1-methyl-1H-pyrazol-4-yl)-4-(6-(6-(3-(pyridin-3-yl)propioloyl]-3,6-diazabicyclo[3.1.1]heptan-3-yl]-3-pyridin]pyrazolo[1,5-a]pyridine-3-carbonitrile]: 4.28 nM and 82.6 nM.
For `C#CC#CCN1CCN(c2ccc(-c3cc(-c4cnn(C)c4)cn4ncc(C#N)c34)cn2)CC1` [Example 275, 6-(1-methyl-1H-pyrazol-4-yl)-4-(6-(4-(penta-2,4-diyn-1-yl)piperazin-1-yl)pyridine-3-yl)pyrazolo[1,5-a]pyridine-3-carbonitrile], in that order: 0.58 nM and 8.22 nM.
